“And” between values parts separate entries of the source, which are not always exact repeats. Equal entries are not always repeated.
Columns and labels:
[1] = cited from earlier work; for Label section / Severity class: DILIrank; for Label section: FDA drug label section; for DILIrank: FDA DILIrank category based on clinical data
[2] = peak serum concentration used as dosing reference; source not given; cited from earlier work
HepG2 spheroids [3] = experiment: ALB secretion (Human Albumin ELISA) in the DILI toxicity test on HepG2 spheroids; format: cell-based; conditions: 10*Cmax, end of Day 3 (72 h), individual replicates n = 3, unit from Fig. S3 legend
Procedure: (§1) The HepG2 cells were donated by Avatarget Co., Ltd (Suzhou, China). The HepG2 cells were cultured in DMEM (Gibco, 10567014) containing 10% fetal bovine serum (GIBCO, A3161001C), and 1×penicillin/streptomycin (Gibco, 15140148). HepG2 cells (70–80% cell confluency) were washed twice in sterile PBS and then dissociated with 1 mL 0.25% EDTA-Trypsin. Using 3×volume of the complete medium neutralized with reagent above, count cells and ensure 10,000 cells/well. The desired volume of cell suspension was inoculated into the 200 μL/well of ultra-low attachment microplate (Corning, 7007). The plate was centrifuged at 1500 rpm for 10 min and then incubated in an incubator at 37 °C in 5% CO2 for 4 days. The medium is changed every other day at a 1:1 ratio.
(§2) The peak serum concentration (Cmax) can intuitively reflect the actual presence level of a drug in the body’s circulatory system. Therefore, we used 1*Cmax as a reference for the drug dosage to better approximate the in vivo conditions. On this basis, we selected 10*Cmax as the reference concentration, taking into account the coefficient of variation in toxicology (individual variability: tenfold). […] Each drug was tested in triplicate. Plates were dosed with the drug for 72 h in each cycle (referred to as Day 0 through Day 3). […] At the end of day 3, the supernatant from each well was collected to determine ALB secretion, and the spheroids from each well were used for the cell viability assay. The Cmax information of the drugs is shown in Supplementary Table 3.
The culture supernatants were collected and stored at −80 °C until use. The supernatant was assayed with a Human Albumin ELISA Kit (PROTEINTECH, KE00076). Assays were performed according to the manufacturer’s instructions.

HepG2 spheroids [4] = experiment: Cellular viability (ATP, CellTiter-Glo) in the DILI toxicity test on HepG2 spheroids; format: cell-based; conditions: 10*Cmax, end of Day 3 (72 h), individual replicates n = 3, unit from Fig. S4 legend
Procedure: as §1, §2
CellTiter-Glo (CTG, G9681, PROMEGA) reagent and culture medium were added to each well in a 1:1 ratio. The contents were mixed for 2 min to induce cell lysis. The plate was incubated at room temperature for 10 min to stabilize the luminescent signal. Recording of luminescence was carried out with BioTek Microplate Reader Synergy H1 (Vermont, USA).

For `O=P1(N(CCCl)CCCl)NCCCO1` (stereo not shown) [Cyclophosphamide], the Label section [1] is given as “Adverse reactions”, the Severity class [1] is given as 5 and the DILIrank [1] is given as “vLess-DILI-Concern”. The Cmax [2] was 69000 ng/mL, the ALB inhibition (HepG2 spheroids [3]) was 90% and 54% and 78% and the ATP inhibition (HepG2 spheroids [4]) was 36% and 26% and 38%.
For `C[C@]12CCC(=O)C=C1CC[C@@H]1[C@@H]2[C@@H](O)C[C@@]2(C)[C@H]1CC[C@]2(O)C(=O)CO` [Hydrocortisone], the Label section [1] is given as “No match”, the Severity class [1] is given as 0 and the DILIrank [1] is given as “vNo-DILI-Concern”. The Cmax [2] was 305 ng/mL, the ALB inhibition (HepG2 spheroids [3]) was -33% and -30% and -26% and the ATP inhibition (HepG2 spheroids [4]) was -17% and -20% and -30%.
In the case of `N[C@@H]1[C@H]2CN(c3nc4c(cc3F)c(=O)c(C(=O)O)cn4-c3ccc(F)cc3F)C[C@@H]12` [Trovafloxacin], the Label section [1] is given as “Withdrawn”, the Cmax [2] is given as 2090 ng/mL and the ALB inhibition (HepG2 spheroids [3]) is given as 28% and 76% and 63%. For the same molecule, the ATP inhibition (HepG2 spheroids [4]) was 52% and 58%.
